Columns and labels:
[1] = tested on: C3; assay: C3 expression in IL-4/TNF-α treated HMC-1 cells, RT-PCR; format: cell-based, human; settings: HMC-1 cells treated with IL-4 and TNF-α; PLAG 0.1 and 1 μg/mL pre-treatment, or S6I
Experimental: A blood cell line, HMC-1 (human mast cell, American Type Culture Collection, ATCC, Rockville, Md.) is incubated and maintained at 37° C. under 5% CO2 humid conditions. The medium is IMDM (Life Technologies, Karlsruhe, Germany) containing 10% Fetal Calf Serum (FCS, HyClone, Logan, Utah), 2 mM […], 100 μg/ml penicillin, 100 μg/ml streptomycin (Life Technologies). The cultured HMC-1 cells (1×10^6 cell/ml) are pre-treated with 0.1 and 1 μg/mL concentration of PLAG, followed by treating with IL-4 (5 ng) and/or TNF-α (10 ng) to induce cellular activities.
The expressed C3 and its mRNA level change are observed by using RT-PCR (Reverse Transcriptase Polymerase Chain Reaction). The RT-PCR is carried out as follows: the total RNA is separated by the standard protocol and cDNA is synthesized using AccuScript High Fidelity 1st Strand cDNA Synthesis Kit (Stratagene) by the manufacturer's instructions. Two-step RT-PCR reaction is conducted using Oligo-dT primer and reverse transcriptase, pair of primer and Taq polymerase (Takara, Shiga, Japan). […] The product of PCR is separated using 1.5% agarose gel, dyed with ethidium bromide (EtBr), and visualized with Gel Doc 2000 UV trans-illuminator (Bio-Rad Laboratories, Hercules, Calif., USA), and the experimental data is analyzed using Quantity One software (Bio-Rad Laboratories).

[2] = tested on: C3; assay: C3 expression in HepG2 cell line, RT-PCR of mRNA; format: cell-based, human; settings: HepG2 cells, S6I 10 and 100 microgram/ml, relative to PLAG 1 and 10 microgram/ml
Experimental: A liver cell line, HepG2 (American Type Culture Collection, ATCC, Rockville, Md.), is incubated and maintained at 37° C., 5% CO2 humid atmosphere in DMEM medium. When HepG2 cells, which are known to produce complement in culture, are treated with PLAG, the activity of complement is reduced effectively, as confirmed by RT-PCR of mRNA. In the RT-PCR, 5×10^5 number of HepG2 cells/ml are distributed into 12 well plates and induced C3 for 12 hours with 10% FCS. Then PLAG is added and further cultured for 2 hours. Cells are harvested and mRNA is isolated and RT-PCR is carried out with specific primer of C3; GAPDH is used as an internal control.

[3] = tested on: white blood cells and neutrophils; assay: PLAG in combination with G-CSF in cyclophosphamide-treated mouse model; format: in vivo, mice; settings: cyclophosphamide 100 mpk i.p. ten days; G-CSF 0.25 mpk i.p.; PLAG 25 mpk p.o.
Text: Mice receive cyclophosphamide (100 mpk, i.p.) for a period of ten days, with or without G-CSF (0.25 mpk, i.p.) or G-CSF (0.25 mpk, i.p.) plus PLAG (25 mpk, p.o.): […]

Compound | expression of C3 [1] | inhibition of C3 expression (RT-PCR) [2] | Neutrophils [3] [k/μl] | White blood cells (WBCs) [3] [k/μl]
NC(=O)c1cnc(NCCc2ccc(O)c(Cl)c2)nc1NCc1ccccc1 [S6I, reference compound] | suppresses expression of C3 | comparable |  | 
G-CSF: Granulocyte-colony stimulating factor, a glycoprotein that stimulates hematopoietic precursor cells in the bone marrow |  |  | 4.36 | 5.37
